Assay results reported in patent publication US20240123078A1, “COMPOUNDS AND METHODS FOR MODULATING IMMUNE-RELATED PROTEINS” (Vividion Therapeutics, Inc., priority 2019, published 2024).

Experiments:
[1] = molecular target: T1, STAT3 Signal transducer and activator of transcription 3 C259 (P40763) (Homo sapiens, UniProt P40763); test: Cysteine reactivity ABPP; format: binding
T1 construct: endogenous in cells; host or cells: primary human T cells
Procedure: (§1) Activated or expanded primary human T cells were re-suspended in RPMI (1×10^6 cells/mL) containing 10% fetal bovine serum (FBS), penicillin (100 U/mL), streptomycin ([…]), and L-glutamine (2 mM). The cells were treated with DMSO or compounds for 3 h, pelleted (524 g, 5 min), washed with PBS, and lysed by sonication (2×8 pulses). Soluble and particulate proteomic fractions were separated by ultracentrifugation (100,000 g, 45 min), and protein concentration was normalized to 1.7 mg/mL using a standard DC protein assay (Bio-Rad). The resulting proteomes were analyzed by competitive isotopic Tandem Orthogonal Proteolysis Activity-Based Protein Profiling (isoTOP-ABPP).
(§2) The heavy/light isoTOP-ABPP ratios (R values) for each unique peptide (DMSO/compound treated) were quantified with in-house CIMAGE software (Weerapana et al., 2010) using default parameters (3 MS1 acquisitions per peak and signal to noise threshold set to 2.5). Site-specific engagement of cysteine residues was assessed by blockade of IA-alkyne probe labeling. […] Ratios for unique peptide sequences were calculated for each experiment; overlapping peptides with the same modified cysteine (e.g., different charge states, elution times or tryptic termini) were grouped together and the median ratio was reported as the final ratio (R). Additionally, ratios for peptide sequences containing multiple cysteines were grouped together. When aggregating data across experimental replicates, the mean of each experimental median R was reported. The peptide ratios reported by CIMAGE were further filtered to ensure the removal or correction of low-quality ratios in each individual dataset. The quality filters applied were the following: removal of half-tryptic peptides, removal of peptides with more than one tryptic miscleaved, removal of peptides with R=20 and only a single MS2 event triggered during the elution of the parent ion, removal of non-unique peptides. Further filtering was then performed as described below for each experiment type.
(§3) Samples (500 μL, 1.7 mg/mL) were treated with iodoacetamide desthiobiotin (IA-DTB, 5 μL of 10 mM stock in DMSO, final concentration: 100 μM) for 1 h at ambient temperature. Ice-cold MeOH (500 μL) and CHCl3 (200 μL) were then added, the mixture was vortexed and centrifuged (10,000 g, 10 min, 4° C.) to afford a protein disc at the interface of CHCl3 and aqueous layers. Both layers were aspirated without perturbing the disk, which was re-suspended in cold methanol (500 μL) and CHCl3 (200 μL) by sonication. The proteins were pelleted (10,000 g, 10 min, 4° C.), and the resulting pellets were re-suspended in a buffer (90 μL) containing 9M urea, 10 mM DTT and 50 mM triethylammonium bicarbonate ( 1/20 dilution of 1.0 M stock solution, pH 8.5) by thorough pipetting up and down. The resulting mixture was heated at 65° C. for 20 min. Sample was cooled to room temp, iodoacetamide (10 μL, 500 mM solution in H2O) was added, and the samples were incubated at 37° C. for 30 min with shaking.
(§4) At individual TMT experiment level, the following filters were applied to remove low-quality peptides: removal of non-unique peptides; removal of half-tryptic peptides; removal of peptides with more than one internal miscleaved site; removal of peptides with low (<10,000) sum of reporter ion intensities for control channels, and peptides with high variation between the replicate control channels (coefficient of variance >0.5). R values (compound-treated vs. DMSO-treated) for each peptide entry were calculated using the reporter ion intensities of DMSO and compound treated TMT channels for each treatment group with a maximum ratio cap of 20. […]

[2] = molecular target: T2, JAK1 Tyrosine-protein kinase JAK1 C810, C817 (P23458) (Homo sapiens, UniProt P23458); test: Cysteine reactivity ABPP; format: binding
T2 construct: endogenous in cells; host or cells: primary human T cells
T2 sequence (P23458 whole entry): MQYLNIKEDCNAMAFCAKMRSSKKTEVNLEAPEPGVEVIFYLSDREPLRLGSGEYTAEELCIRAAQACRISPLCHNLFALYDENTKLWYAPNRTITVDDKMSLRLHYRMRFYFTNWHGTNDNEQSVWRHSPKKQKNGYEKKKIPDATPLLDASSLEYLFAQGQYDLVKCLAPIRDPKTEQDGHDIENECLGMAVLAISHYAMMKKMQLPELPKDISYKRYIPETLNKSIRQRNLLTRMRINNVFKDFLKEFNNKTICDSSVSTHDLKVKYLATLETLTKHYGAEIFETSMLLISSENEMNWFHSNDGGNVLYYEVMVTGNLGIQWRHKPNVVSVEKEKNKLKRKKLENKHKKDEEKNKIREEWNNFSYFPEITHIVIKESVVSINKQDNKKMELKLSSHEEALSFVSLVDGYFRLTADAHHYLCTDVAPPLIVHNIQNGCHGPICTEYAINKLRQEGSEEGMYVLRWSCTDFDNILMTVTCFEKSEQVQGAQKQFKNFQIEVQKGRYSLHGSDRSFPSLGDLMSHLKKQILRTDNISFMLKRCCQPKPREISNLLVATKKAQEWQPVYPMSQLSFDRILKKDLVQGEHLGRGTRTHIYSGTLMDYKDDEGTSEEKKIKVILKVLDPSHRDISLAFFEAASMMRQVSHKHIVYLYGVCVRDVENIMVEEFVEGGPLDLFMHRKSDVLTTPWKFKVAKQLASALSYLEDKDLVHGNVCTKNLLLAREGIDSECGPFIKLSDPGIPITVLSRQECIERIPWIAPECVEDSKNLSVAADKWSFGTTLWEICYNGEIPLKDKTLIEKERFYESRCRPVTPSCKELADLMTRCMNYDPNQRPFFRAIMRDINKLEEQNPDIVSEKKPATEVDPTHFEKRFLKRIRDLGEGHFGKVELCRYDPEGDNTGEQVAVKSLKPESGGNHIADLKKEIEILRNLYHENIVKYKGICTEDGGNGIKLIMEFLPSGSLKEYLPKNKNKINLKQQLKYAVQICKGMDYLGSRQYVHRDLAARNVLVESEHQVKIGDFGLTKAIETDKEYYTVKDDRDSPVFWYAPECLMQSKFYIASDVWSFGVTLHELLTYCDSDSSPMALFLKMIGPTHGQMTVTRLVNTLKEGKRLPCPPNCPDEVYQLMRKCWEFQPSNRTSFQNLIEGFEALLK
Procedure: as §1, §2, §3, §4

[3] = molecular target: T3, CBLB E3 ubiquitin-protein ligase CBL-B C686 (Q13191) (Homo sapiens, UniProt Q13191); test: Cysteine reactivity ABPP; format: binding
T3 construct: endogenous in cells; host or cells: primary human T cells
T3 sequence (Q13191 whole entry): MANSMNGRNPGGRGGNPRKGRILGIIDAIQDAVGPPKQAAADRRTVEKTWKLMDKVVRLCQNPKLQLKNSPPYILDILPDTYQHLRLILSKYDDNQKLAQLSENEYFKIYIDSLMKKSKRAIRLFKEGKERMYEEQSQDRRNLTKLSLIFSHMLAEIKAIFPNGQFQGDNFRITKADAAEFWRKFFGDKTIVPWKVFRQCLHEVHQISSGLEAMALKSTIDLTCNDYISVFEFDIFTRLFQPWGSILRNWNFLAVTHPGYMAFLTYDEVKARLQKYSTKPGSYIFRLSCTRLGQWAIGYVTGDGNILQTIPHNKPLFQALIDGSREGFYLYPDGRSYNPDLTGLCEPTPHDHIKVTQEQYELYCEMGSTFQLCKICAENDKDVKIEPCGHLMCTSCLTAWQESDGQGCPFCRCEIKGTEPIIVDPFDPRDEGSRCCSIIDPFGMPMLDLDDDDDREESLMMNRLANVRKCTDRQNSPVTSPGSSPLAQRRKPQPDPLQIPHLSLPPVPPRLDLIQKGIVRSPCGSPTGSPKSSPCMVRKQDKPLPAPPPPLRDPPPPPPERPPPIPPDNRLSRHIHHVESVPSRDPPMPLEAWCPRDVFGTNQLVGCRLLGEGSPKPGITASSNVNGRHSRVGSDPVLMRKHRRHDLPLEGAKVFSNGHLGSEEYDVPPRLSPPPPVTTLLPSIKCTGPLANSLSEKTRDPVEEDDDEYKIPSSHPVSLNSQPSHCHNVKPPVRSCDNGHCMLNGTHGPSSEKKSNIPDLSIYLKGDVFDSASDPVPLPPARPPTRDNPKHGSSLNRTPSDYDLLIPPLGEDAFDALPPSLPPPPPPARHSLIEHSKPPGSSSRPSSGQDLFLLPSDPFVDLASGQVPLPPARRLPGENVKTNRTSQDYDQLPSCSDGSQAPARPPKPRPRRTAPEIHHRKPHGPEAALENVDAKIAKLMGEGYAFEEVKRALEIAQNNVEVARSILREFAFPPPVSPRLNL
Procedure: as §1, §2, §3, §4

[4] = molecular target: T4, PFKFB3 6-phosphofructo-2-kinase/fructose-2,6-bisphosphatase 3 C155 (Q16875) (Homo sapiens, UniProt Q16875); test: Cysteine reactivity ABPP; format: binding
T4 construct: endogenous in cells; host or cells: primary human T cells
T4 sequence (Q16875 whole entry, one chain of several): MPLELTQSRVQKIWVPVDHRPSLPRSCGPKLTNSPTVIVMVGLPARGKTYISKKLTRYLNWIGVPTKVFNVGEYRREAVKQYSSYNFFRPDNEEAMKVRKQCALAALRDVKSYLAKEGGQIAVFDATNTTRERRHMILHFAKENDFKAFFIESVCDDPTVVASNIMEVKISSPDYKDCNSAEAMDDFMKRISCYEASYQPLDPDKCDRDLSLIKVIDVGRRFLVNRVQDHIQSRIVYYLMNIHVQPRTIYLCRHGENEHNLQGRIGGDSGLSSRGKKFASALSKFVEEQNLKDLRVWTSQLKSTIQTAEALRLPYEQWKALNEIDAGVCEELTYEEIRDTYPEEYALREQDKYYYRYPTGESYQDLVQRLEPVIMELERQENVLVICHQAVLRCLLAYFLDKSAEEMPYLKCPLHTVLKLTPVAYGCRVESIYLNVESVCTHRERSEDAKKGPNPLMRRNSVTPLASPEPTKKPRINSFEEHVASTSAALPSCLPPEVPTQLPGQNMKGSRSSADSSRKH
Procedure: as §1, §2, §3, §4

[5] = molecular target: T5, PTPN11 Tyrosine-protein phosphatase non-receptor type 11 C259 (Q06124) (Homo sapiens, UniProt Q06124); test: Cysteine reactivity ABPP; format: binding
T5 construct: endogenous in cells; host or cells: primary human T cells
T5 sequence (Q06124 1-593): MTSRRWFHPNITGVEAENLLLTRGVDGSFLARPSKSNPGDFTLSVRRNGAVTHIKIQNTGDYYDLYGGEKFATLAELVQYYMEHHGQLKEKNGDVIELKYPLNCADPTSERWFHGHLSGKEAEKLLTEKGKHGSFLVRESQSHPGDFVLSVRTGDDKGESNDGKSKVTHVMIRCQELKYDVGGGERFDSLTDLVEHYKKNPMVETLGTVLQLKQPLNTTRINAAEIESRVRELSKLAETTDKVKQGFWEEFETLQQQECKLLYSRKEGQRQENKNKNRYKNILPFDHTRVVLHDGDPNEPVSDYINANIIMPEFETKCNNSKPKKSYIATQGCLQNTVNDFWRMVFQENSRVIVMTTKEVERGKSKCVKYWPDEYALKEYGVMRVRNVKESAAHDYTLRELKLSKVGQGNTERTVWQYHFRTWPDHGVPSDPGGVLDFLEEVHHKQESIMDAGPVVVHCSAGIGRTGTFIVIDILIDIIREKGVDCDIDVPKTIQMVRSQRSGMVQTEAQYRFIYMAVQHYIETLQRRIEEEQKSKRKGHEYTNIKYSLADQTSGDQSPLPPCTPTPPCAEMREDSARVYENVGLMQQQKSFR
Procedure: as §1, §2, §3, §4

[6] = molecular target: T6, ACAT1 Acetyl-CoA acetyltransferase, mitochondrial C119 (P24752) (Homo sapiens, UniProt P24752); test: Cysteine reactivity ABPP; format: binding
T6 construct: endogenous in cells; host or cells: primary human T cells
T6 sequence (P24752 34-427): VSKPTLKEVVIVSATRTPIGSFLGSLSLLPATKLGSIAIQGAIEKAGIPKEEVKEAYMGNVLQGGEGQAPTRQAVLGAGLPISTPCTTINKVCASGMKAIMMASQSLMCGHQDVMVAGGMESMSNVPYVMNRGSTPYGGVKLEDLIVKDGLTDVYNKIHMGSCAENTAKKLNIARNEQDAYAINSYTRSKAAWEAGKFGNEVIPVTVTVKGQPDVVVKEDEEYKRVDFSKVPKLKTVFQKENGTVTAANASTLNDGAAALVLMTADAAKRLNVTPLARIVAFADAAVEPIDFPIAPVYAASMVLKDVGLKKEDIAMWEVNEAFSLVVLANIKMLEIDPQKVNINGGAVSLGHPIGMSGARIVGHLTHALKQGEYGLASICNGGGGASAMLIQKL
Procedure: as §1, §2, §3, §4

[7] = molecular target: T7, STAT3 Signal transducer and activator of transcription 3 C712, C718 (P40763) (Homo sapiens, UniProt P40763); test: Cysteine reactivity ABPP; format: binding
T7 construct: endogenous in cells; host or cells: primary human T cells
T7 sequence (P40763 whole entry, one chain of several): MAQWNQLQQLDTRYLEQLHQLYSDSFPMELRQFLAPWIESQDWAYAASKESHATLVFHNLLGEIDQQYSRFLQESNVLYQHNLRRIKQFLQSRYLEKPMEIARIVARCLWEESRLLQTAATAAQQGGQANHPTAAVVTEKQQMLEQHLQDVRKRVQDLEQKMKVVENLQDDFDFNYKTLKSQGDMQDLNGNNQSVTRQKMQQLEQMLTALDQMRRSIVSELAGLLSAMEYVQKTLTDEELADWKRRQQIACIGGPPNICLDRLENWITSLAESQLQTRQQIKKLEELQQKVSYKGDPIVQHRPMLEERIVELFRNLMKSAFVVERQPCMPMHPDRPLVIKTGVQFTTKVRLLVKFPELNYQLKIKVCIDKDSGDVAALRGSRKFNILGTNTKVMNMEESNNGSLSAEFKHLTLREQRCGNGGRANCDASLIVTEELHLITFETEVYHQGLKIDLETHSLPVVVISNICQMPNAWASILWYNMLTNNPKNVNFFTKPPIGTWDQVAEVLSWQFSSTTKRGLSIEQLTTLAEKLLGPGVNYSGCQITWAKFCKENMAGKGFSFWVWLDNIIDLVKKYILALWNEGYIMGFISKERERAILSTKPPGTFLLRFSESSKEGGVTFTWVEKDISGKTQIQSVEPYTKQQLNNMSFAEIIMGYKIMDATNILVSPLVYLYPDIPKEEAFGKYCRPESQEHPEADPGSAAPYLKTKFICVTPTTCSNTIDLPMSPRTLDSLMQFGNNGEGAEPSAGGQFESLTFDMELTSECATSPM
Procedure: as §1, §2, §3, §4

[8] = molecular target: T8, TYK2 Non-receptor tyrosine-protein kinase TYK2 C838 (P29597) (Homo sapiens, UniProt P29597); test: Cysteine reactivity ABPP; format: binding
T8 construct: endogenous in cells; host or cells: primary human T cells
T8 sequence (P29597 whole entry): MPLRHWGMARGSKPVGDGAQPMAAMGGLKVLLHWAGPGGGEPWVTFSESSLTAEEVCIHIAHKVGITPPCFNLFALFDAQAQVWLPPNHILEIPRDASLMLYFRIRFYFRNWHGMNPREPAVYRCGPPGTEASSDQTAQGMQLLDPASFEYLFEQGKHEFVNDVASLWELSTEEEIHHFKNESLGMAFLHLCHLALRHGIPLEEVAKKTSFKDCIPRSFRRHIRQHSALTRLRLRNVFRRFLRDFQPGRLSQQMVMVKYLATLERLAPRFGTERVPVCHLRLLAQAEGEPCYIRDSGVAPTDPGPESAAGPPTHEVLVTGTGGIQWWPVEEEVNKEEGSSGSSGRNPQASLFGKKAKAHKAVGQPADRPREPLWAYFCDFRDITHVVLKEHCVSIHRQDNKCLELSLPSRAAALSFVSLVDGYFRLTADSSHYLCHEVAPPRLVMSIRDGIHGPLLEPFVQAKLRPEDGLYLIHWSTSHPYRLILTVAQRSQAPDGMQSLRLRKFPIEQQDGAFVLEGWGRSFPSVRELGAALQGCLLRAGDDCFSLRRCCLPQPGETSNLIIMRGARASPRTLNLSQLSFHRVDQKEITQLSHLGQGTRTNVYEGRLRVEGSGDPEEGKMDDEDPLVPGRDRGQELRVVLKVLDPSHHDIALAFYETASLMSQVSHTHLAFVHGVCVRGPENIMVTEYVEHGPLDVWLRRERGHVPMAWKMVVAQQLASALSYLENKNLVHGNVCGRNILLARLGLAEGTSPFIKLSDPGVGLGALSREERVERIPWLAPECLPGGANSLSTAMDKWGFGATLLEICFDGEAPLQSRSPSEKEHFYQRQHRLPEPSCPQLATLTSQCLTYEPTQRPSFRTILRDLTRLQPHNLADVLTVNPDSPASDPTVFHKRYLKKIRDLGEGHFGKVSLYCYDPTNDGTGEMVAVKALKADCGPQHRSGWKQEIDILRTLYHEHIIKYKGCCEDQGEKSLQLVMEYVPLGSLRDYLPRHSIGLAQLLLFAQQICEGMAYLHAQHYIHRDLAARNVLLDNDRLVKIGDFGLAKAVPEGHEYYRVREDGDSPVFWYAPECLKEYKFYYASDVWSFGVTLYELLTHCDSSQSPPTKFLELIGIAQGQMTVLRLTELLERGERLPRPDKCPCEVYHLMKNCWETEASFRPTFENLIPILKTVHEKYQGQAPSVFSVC
Procedure: as §1, §2, §3, §4

[9] = system: primary human T cells; test: Multidimensional screen for inhibition of T cell activation; format: cell-based
Procedure: Non-tissue culture treated 96-well plates are pre-coated with αCD3 (5 μg/mL) and αCD28 antibodies (2 μg/mL) in PBS (100 μL/well) and left at 4° C. overnight. Freshly isolated T cells are re-suspended in RPMI media supplemented with 10% FBS, L-glutamine (2 mM), penicillin (100 U/mL), and streptomycin (100 μg/mL) at 2×10^6 cells/mL. Compound stocks (200×) in DMSO are diluted to 2× stocks in the working RPMI media in another 96-well plate. The pre-coated 96-well treatment plates are washed with PBS (2×200μL), T cells (100 μL/well, 2×10^5 cells/well) are then added to the wells, followed by the addition of 2× compound stocks in RPMI media (100 μL). […]
The levels of secreted IL2, IFNγ and TNFα after incubating T cells in the presence of DMSO or electrophilic compounds under TCR-stimulating conditions are measured using DuoSet ELISA cytokine kits (R&D Systems) in clear microplates (R&D Systems) according to manufacturer's instructions and read using a CLARIOstar (BMG Labtech) plate reader (450 nm).
A multidimensional screen can be preformed of a focused library of structurally elaborated electrophilic small molecules to identify compounds that suppress T cell activation at low-μM concentrations without causing cytotoxicity. […] The viability of T cells can be monitored by flow cytometry using near-IR live-dead stain.

[10] = molecular target: T9, BIRC2 (C45) (Homo sapiens, UniProt Q13490); test: isoTOP-ABPP of elaborated compound data (DMF datasets); format: binding; settings: maximal ratio of 20 = ≥95% reduction in MS1 peak area
T9 construct: endogenous in cells; host or cells: primary human T cells
Procedure: as §1
(§5) The heavy/light isoTOP-ABPP ratios (R values) for each unique peptide (DMSO/compound treated) were quantified with in-house CIMAGE software (Weerapana et al., 2010) using default parameters (3 MS1 acquisitions per peak and signal to noise threshold set to 2.5). Site-specific engagement of cysteine residues was assessed by blockade of IA-alkyne probe labeling. […] Ratios for unique peptide sequences were calculated for each experiment; overlapping peptides with the same modified cysteine (e.g., different charge states, elution times or tryptic termini) were grouped together and the median ratio was reported as the final ratio (R). […]

[11] = molecular target: T10, CASP2 (C366, C370) (Homo sapiens, UniProt P42575); test: as above; format: binding; settings: maximal ratio of 20 = ≥95% reduction in MS1 peak area
T10 construct: Soluble and particulate proteomic fractions were separated by ultracentrifugation; endogenous in cells; host or cells: primary human T cells
T10 sequence (P42575 1-452): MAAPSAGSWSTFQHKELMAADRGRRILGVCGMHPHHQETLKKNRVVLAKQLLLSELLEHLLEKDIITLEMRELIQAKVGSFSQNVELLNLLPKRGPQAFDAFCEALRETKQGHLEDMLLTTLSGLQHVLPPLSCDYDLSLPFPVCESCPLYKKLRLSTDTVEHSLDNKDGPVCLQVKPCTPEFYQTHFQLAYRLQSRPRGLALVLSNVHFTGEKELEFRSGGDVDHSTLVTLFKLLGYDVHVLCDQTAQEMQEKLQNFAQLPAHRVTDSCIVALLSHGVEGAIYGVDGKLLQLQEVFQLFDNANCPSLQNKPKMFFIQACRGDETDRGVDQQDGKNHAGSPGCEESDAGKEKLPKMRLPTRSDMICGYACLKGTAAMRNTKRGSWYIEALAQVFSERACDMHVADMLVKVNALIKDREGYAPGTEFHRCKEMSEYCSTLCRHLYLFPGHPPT
Procedure: as §1, §5

T1 sequence (P40763 whole entry, one chain of several): as the sequence (P40763 whole entry, one chain of several) above

Row | Compound | Cysteine reactivity proteomic data ([1]; 100 μM) | Cysteine reactivity proteomic data ([1]; 500 μM) | Cysteine reactivity proteomic data ([2]; 100 μM) | Cysteine reactivity proteomic data ([2]; 500 μM) | Cysteine reactivity proteomic data ([3]; 100 μM) | Cysteine reactivity proteomic data ([3]; 500 μM) | Cysteine reactivity proteomic data ([4]; 100 μM) | Cysteine reactivity proteomic data ([4]; 500 μM) | Cysteine reactivity proteomic data ([5]; 100 μM) | Cysteine reactivity proteomic data ([5]; 500 μM) | Cysteine reactivity proteomic data ([6]; 100 μM) | Cysteine reactivity proteomic data ([6]; 500 μM) | Cysteine reactivity proteomic data ([7]; 100 μM) | Cysteine reactivity proteomic data ([7]; 500 μM) | Cysteine reactivity proteomic data ([8]; 100 μM) | Cysteine reactivity proteomic data ([8]; 500 μM) | suppress T cell activation ([9]; anti-CD3/anti-CD28 activation, measured 24 h later by reductions in secreted IL-2, IFN-γ and CD69, CD25 expression) [%] | viability of T cells ([9]; flow cytometry, near-IR live-dead stain) [%] | isoTOP-ABPP ratio R (DMSO/compound treated) [10] | isoTOP-ABPP ratio R (DMSO/compound treated) [11]
1 | C=CC(=O)N(Cc1cccc(Cl)n1)c1ccc(C(=O)Nc2ccccc2)nc1 [Compound L4] | 58.1986 | 57.1888 | 94.3358 | 99.489 | 4.7619 | 84.7455 | 81.7564 | 89.0944 | 50.0993 | 72.8049 | −14.9577 | 58.3081 | 42.1791 | 80.6157 | 96.4386 | 98.2637 |  |  |  | 
2 | CN(C)C=O [DMF] |  |  |  |  |  |  |  |  |  |  |  |  |  |  |  |  | > 65 | > 85 | 20 | 20
